Results reported in EP3448864B1, “SILSE[…] TRANSPORT COMPOUNDS” (Technische Universität Darmstadt, priority 2016, dated 2017).

Legend:
Type in all cases: cell-based
[1] = test system: HeLa-Zellen; test: Flow cytometry quantification of cellular uptake; conditions: for Aufnahme in Zellen: summary statement in the description, citing FIG.1A/1B, 2, 3, 4
Excerpt: Um die Aufnahme der Verbindungen in eukaryotische Zellen zu quantifizieren, wurden umfangreiche Durchflusszytometrieuntersuchungen mit den Verbindungen 2 bis 7 (Verbindungen 2 und 5 sind Vergleichsbeispiele) durchgeführt. Ferner wurden auch die aus dem Stand der Technik bekannten zellpenetrierenden Peptide Tat 10, Penetratin 11, Heptaarginin 12 und Decaarginin 13 untersucht. Zu diesem Zweck wurden auch die Peptide mit TAMRA markiert.
Zunächst wurden HeLa-Zellen mit den zu untersuchenden Substanzen bei einer Konzentration von 20 µM in serumfreiem DMEM bei 37°C für 10 Minuten inkubiert. Danach wurden die Zellen dreimal mit PBS gewaschen und nach einem Trypsinverdau nochmals mit PBS gewaschen. Danach wurden die Untersuchungen durchgeführt. […] Die Ergebnisse sind in FIG.2 zusammen gefasst.

[2] = test system: HeLa-Zellen; test: Study of the uptake mechanism (temperature, concentration, serum) by fluorescence
Description: Es wurden weitere Fluoreszenzuntersuchungen an Verbindung 4 durchgeführt. […] Daraus kann angenommen werden, dass der Mechanismus energieunabhängig verläuft.
Ferner wurden HeLa-Zellen mit der Verbindung 4 bei unterschiedlichen Konzentrationen inkubiert. Schon bei 80 nM wurde eine Aufnahme in die Zellen beobachtet. Bei 1 µM wurde der größte Effekt beobachtet.
Darüber hinaus wurde untersucht, ob Serum die Aufnahme in die Zellen behindern kann. Dafür wurde die Inkubationslösung mit 2% fetalem Kälberserum versetzt.

[3] = test system: HeLa-Zellen; test: Cell proliferation test (MTT) after short incubation; conditions: free drug in PBS pH 5,5, different concentrations, 1, 2 and 3 h incubation, 1x10^4 HeLa cells, MTT after 18 h
Excerpt: Um die Toxizität von Doxorubicin auf HeLa-Zellen zu untersuchen, wurde ein Inkubationszeitabhängiger Test mit dem freien Wirkstoff durchgeführt. Dafür wurde Doxorubicin in PBS bei pH 5,5 gelöst und bei unterschiedlichen Konzentrationen für 1 Stunde, 2 Stunden und 3 Stunden mit 1x10^4 HeLa-Zellen inkubiert. Nach dem Inkubieren wurden die Zellen mit DMEM gewaschen und nach 18 Stunden ein Zellproliferationstest (MTT) durchgeführt.
Danach wurde die oben gezeigte erfindungsgemäße Verbindung mit Doxorubicin als Cargo-Molekülstruktur getestet. Die Verbindung wurde - genau wie die Kontrollen (freies Doxorubicin, unbehandelte Zellen) -je dreifach bei gleicher Konzentration für eine Stunde inkubiert. Um die Disulfidbrücke zu schützen wurden die Zellen mit hoch-glucosehaltigem DMEM ohne Methionin, Cysteine und Glutamine gewaschen. Nach der Inkubation wurden die Zellen mit DMEM gewaschen und nach 18 Stunden wurde ein MTT-Assay durchgeführt. […] Die Ergebnisse sind in FIG.6 zusammen gefasst.

[4] = HeLa cells incubated at different concentrations

Molecule: TAMRA-heptaguanidin-COSS [Verbindung 4]
- Aufnahme stärker ausgeprägt als die des Tat-Peptids ([1]; 20 µM, serum-free DMEM, 37°C, 10 min, fold versus TAMRA-labelled Tat peptide): 155 mal
- Aufnahme ([1]; 20 µM, serum-free DMEM, 37°C, 10 min, ranking among compounds 2 to 7 and TAMRA-labelled peptides 10 to 13, FIG.2): beste Aufnahme
- Aufnahme in Zellen [1]: besonders ausgeprägte Aufnahme in Zellen
- Konzentration, bei der der größte Effekt beobachtet wurde [2, 4]: 1 µM
- Konzentration, bei der schon eine Aufnahme in die Zellen beobachtet wurde [2, 4]: 80 nM
- Aufnahme bei den unterschiedlichen Temperaturen ([2]; incubation at 37°C versus 4°C): kaum unterschiedlich
- Einfluss von Serum auf die Aufnahme in die Zellen ([2]; incubation solution with 2% fetal calf serum versus serum-free tests): kein Unterschied

Molecule: TAMRA-hepta-4-guanidinobuttersäure-COSS-amid [Verbindung 7]
- Aufnahme in Zellen [1]: besonders ausgeprägte Aufnahme in Zellen

Molecule: TAMRA-hepta-4-trimethylammoniumbuttersäure-COSS-amid [Verbindung 6]
- Aufnahme in Zellen [1]: besonders ausgeprägte Aufnahme in Zellen

Molecule: COc1cccc2c1C(=O)c1c(O)c3c(c(O)c1C2=O)C[C@@](O)(C(=O)CO)C[C@@H]3O[C@H]1C[C@H](N)[C@H](O)[C@H](C)O1 [Doxorubicin, reference compound]
- Toxizität auf HeLa-Zellen [3]: mit längerer Inkubation nahm die Toxizität zu

Molecule: TAMRA-heptatrimethylammonium-COSS [Verbindung 3]
- Aufnahme in Zellen [1]: besonders ausgeprägte Aufnahme in Zellen
